Laboratory results: PubChem BioAssay AID1963430 (Molecular Pharmacology Branch, DTP, NCI, 2024)
Where “and” joins values, the source holds several entries; their conditions need not be identical. Equal values may be shown once.

Test system: 521955-158-R2-J5-PDC complex spheroid growth, % test/control
Assay: Anticancer human tumor 521955-158-R2-J5-PDC patient-derived pancreatic carcinoma cell line growth inhibition [Asc]
Settings: for viability, T/C: stronger effect = lower value; active = viability on the fitted dose curve at most 10% of control; inactive = the rest
In short: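 Spheroid model: tumor line + HUVEC + hMSC. Single agents and combinations; top conc. at/near clinical Cmax (10 microM if undetermined), half-log dilutions. DMSO stocks at 800-fold test concentration.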

[1] = curve of first compound, second compound 0.1 µM
[2] = curve of first compound, second compound 0.316 µM
[3] = curve of first compound, second compound 1 µM
[4] = curve of first compound, second compound 3.16 µM
[5] = curve of first compound, second compound 10 µM
[6] = second compound 0.1 µM, first compound 0.00316 µM
[7] = second compound 0.1 µM, first compound 0.01 µM
[8] = second compound 0.1 µM, first compound 0.0316 µM
[9] = second compound 0.1 µM, first compound 0.1 µM
[10] = second compound 0.1 µM, first compound 0.316 µM
[11] = second compound 0.1 µM, first compound 1 µM
[12] = second compound 0.316 µM, first compound 0.00316 µM
[13] = second compound 0.316 µM, first compound 0.01 µM
[14] = second compound 0.316 µM, first compound 0.0316 µM
[15] = second compound 0.316 µM, first compound 0.1 µM
[16] = second compound 0.316 µM, first compound 0.316 µM
[17] = second compound 0.316 µM, first compound 1 µM
[18] = second compound 1 µM, first compound 0.00316 µM
[19] = second compound 1 µM, first compound 0.01 µM
[20] = second compound 1 µM, first compound 0.0316 µM
[21] = second compound 1 µM, first compound 0.1 µM
[22] = second compound 1 µM, first compound 0.316 µM
[23] = second compound 1 µM, first compound 1 µM
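Note: spheroids exposed to agents for 7 days before readout.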
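Throughout, for viability, T/C: 100% = DMSO vehicle control viability.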

CNC(C)C(=O)NC1CN(S(=O)(=O)c2cccc(S(=O)(=O)N3CCC4CCC(C(=O)NC(c5ccccc5)c5ccccc5)N4C(=O)C(NC(=O)C(C)NC)C3)c2)CCC2CCC(C(=O)NC(c3ccccc3)c3ccccc3)N2C1=O (configuration not stated) + Cc1c(S(C)(=O)=O)c(-c2cc(F)cc(N3CCN(c4ccc(NS(=O)(=O)c5ccc(NC(CCN6CCC(C(=O)OCCCP(=O)(O)O)CC6)CSc6ccccc6)c(S(=O)(=O)C(F)(F)F)c5)cc4)CC3)c2)c(-c2ccc(Cl)cc2)n1C(C)C
inactive: viability, T/C [6] 75.6% | viability, T/C [7] 64% | viability, T/C [8] 57.1% | viability, T/C [9] 76.4% | viability, T/C [10] 64% | viability, T/C [11] 67.9% | viability, T/C [12] 92.7% | viability, T/C [13] 86.7% | viability, T/C [14] 89.3% | viability, T/C [15] 74.6% | viability, T/C [16] 91.1% | viability, T/C [17] 87.6% | viability, T/C [18] 97.2% | viability, T/C [19] 88.4% | viability, T/C [20] 71.8% | viability, T/C [21] 77.8% | viability, T/C [22] 59.8% | viability, T/C [23] 75.7% | viability, T/C (second compound 3.16 µM, first compound 0.00316 µM) 97.7% | viability, T/C (second compound 3.16 µM, first compound 0.01 µM) 75.9% | viability, T/C (second compound 3.16 µM, first compound 0.0316 µM) 47.5% | viability, T/C (second compound 3.16 µM, first compound 0.1 µM) 80.6% | viability, T/C (second compound 3.16 µM, first compound 0.316 µM) 65.8% | viability, T/C (second compound 3.16 µM, first compound 1 µM) 60.4% | viability, T/C (second compound 10 µM, first compound 0.00316 µM) 192% | viability, T/C (second compound 10 µM, first compound 0.01 µM) 171% | viability, T/C (second compound 10 µM, first compound 0.0316 µM) 180% | viability, T/C (second compound 10 µM, first compound 0.1 µM) 149% | viability, T/C (second compound 10 µM, first compound 0.316 µM) 197% | viability, T/C (second compound 10 µM, first compound 1 µM) 121%
> 1000 nM: IC50 [1] | IC50 [2] | IC50 [3] | IC50 [4] | IC50 [5]

CCN1C(C(=O)NC23CCC(C(=O)O)(CC2)CC3)C(c2cccc(Cl)c2F)C2(C(=O)Nc3cc(Cl)ccc32)C12CCCCC2 (configuration not stated) + Cc1c(S(C)(=O)=O)c(-c2cc(F)cc(N3CCN(c4ccc(NS(=O)(=O)c5ccc(NC(CCN6CCC(C(=O)OCCCP(=O)(O)O)CC6)CSc6ccccc6)c(S(=O)(=O)C(F)(F)F)c5)cc4)CC3)c2)c(-c2ccc(Cl)cc2)n1C(C)C
> 3000 nM: IC50 [1] | IC50 [2] | IC50 [3] | IC50 [4] | IC50 [5]
inactive: viability, T/C (second compound 0.1 µM, first compound 0.00949 µM) 70.7% | viability, T/C (second compound 0.1 µM, first compound 0.03 µM) 80.8% | viability, T/C (second compound 0.1 µM, first compound 0.0949 µM) 54.6% | viability, T/C (second compound 0.1 µM, first compound 0.3 µM) 95% | viability, T/C (second compound 0.1 µM, first compound 0.949 µM) 76.5% | viability, T/C (second compound 0.1 µM, first compound 3 µM) 92.6% | viability, T/C (second compound 0.316 µM, first compound 0.00949 µM) 73.3% | viability, T/C (second compound 0.316 µM, first compound 0.03 µM) 90.4% | viability, T/C (second compound 0.316 µM, first compound 0.0949 µM) 61.1% | viability, T/C (second compound 0.316 µM, first compound 0.3 µM) 72.8% | viability, T/C (second compound 0.316 µM, first compound 0.949 µM) 76% | viability, T/C (second compound 0.316 µM, first compound 3 µM) 89.6% | viability, T/C (second compound 1 µM, first compound 0.00949 µM) 66.2% | viability, T/C (second compound 1 µM, first compound 0.03 µM) 91% | viability, T/C (second compound 1 µM, first compound 0.0949 µM) 69.4% | viability, T/C (second compound 1 µM, first compound 0.3 µM) 74.1% | viability, T/C (second compound 1 µM, first compound 0.949 µM) 67.7% | viability, T/C (second compound 1 µM, first compound 3 µM) 64.5% | viability, T/C (second compound 3.16 µM, first compound 0.00949 µM) 111% | viability, T/C (second compound 3.16 µM, first compound 0.03 µM) 91.7% | viability, T/C (second compound 3.16 µM, first compound 0.0949 µM) 86.1% | viability, T/C (second compound 3.16 µM, first compound 0.3 µM) 100% | viability, T/C (second compound 3.16 µM, first compound 0.949 µM) 77% | viability, T/C (second compound 3.16 µM, first compound 3 µM) 76.7% | viability, T/C (second compound 10 µM, first compound 0.00949 µM) 151% | viability, T/C (second compound 10 µM, first compound 0.03 µM) 153% | viability, T/C (second compound 10 µM, first compound 0.0949 µM) 166% | viability, T/C (second compound 10 µM, first compound 0.3 µM) 169% | viability, T/C (second compound 10 µM, first compound 0.949 µM) 107% | viability, T/C (second compound 10 µM, first compound 3 µM) 112%

O=C(c1ccc(F)c(F)c1Nc1ccc(I)cc1F)N1CC(O)([C@@H]2CCCCN2)C1 + CNC(C)C(=O)NC1CN(S(=O)(=O)c2cccc(S(=O)(=O)N3CCC4CCC(C(=O)NC(c5ccccc5)c5ccccc5)N4C(=O)C(NC(=O)C(C)NC)C3)c2)CCC2CCC(C(=O)NC(c3ccccc3)c3ccccc3)N2C1=O
14.5 nM: IC50 [1]
26.6 nM: IC50 [2]
18.4 nM: IC50 (curve of first compound, second compound 0.0316 µM)
15.8 nM: IC50 [3]
inactive: viability, T/C (second compound 0.01 µM, first compound 0.00316 µM) 61.2% | viability, T/C (second compound 0.01 µM, first compound 0.01 µM) 57.2% | viability, T/C (second compound 0.01 µM, first compound 0.0316 µM) 38.5% | viability, T/C (second compound 0.01 µM, first compound 0.1 µM) 35.7% | viability, T/C (second compound 0.01 µM, first compound 0.316 µM) 17.7% | viability, T/C (second compound 0.01 µM, first compound 1 µM) 20.2% | viability, T/C (second compound 0.0316 µM, first compound 0.00316 µM) 76.8% | viability, T/C (second compound 0.0316 µM, first compound 0.01 µM) 56.4% | viability, T/C (second compound 0.0316 µM, first compound 0.0316 µM) 46.5% | viability, T/C (second compound 0.0316 µM, first compound 0.1 µM) 26.9% | viability, T/C (second compound 0.0316 µM, first compound 0.316 µM) 25.5% | viability, T/C (second compound 0.0316 µM, first compound 1 µM) 18.8% | viability, T/C [6] 66.4% | viability, T/C [7] 44.7% | viability, T/C [8] 53.5% | viability, T/C [9] 29.4% | viability, T/C [10] 19.7% | viability, T/C [11] 20.8% | viability, T/C [12] 61.6% | viability, T/C [13] 60.3% | viability, T/C [14] 48% | viability, T/C [15] 28% | viability, T/C [16] 18.9% | viability, T/C [17] 18.3% | viability, T/C [18] 67.1% | viability, T/C [19] 53.4% | viability, T/C [20] 43.5% | viability, T/C [21] 28.2% | viability, T/C [22] 17.4% | viability, T/C [23] 17.3%
15.7 nM: IC50 (curve of first compound, second compound 0.01 µM)

CCN1CCN(Cc2ccc(Nc3ncc(F)c(-c4cc(F)c5nc(C)n(C(C)C)c5c4)n3)nc2)CC1
> 1000 nM: IC50 (curve of compound)
inactive: viability, T/C (compound 0.00316 µM) 70.6% and 82.3% and 87.5% | viability, T/C (compound 0.01 µM) 72% and 65.5% and 92.3% | viability, T/C (compound 0.0316 µM) 54.5% and 79.2% and 78.5% | viability, T/C (compound 0.1 µM) 66.6% and 70.4% and 70.9% | viability, T/C (compound 0.316 µM) 74.6% and 71.2% and 91.2% | viability, T/C (compound 1 µM) 103% and 98.6% and 108%
